The record followed here is patent US20250066367A1, “Pyrimidine-Annulated Triazole Derivatives and Their Use in Platelet Aggregation Inhibition” (BEIJING HONGHUI MEDITECH CO., LTD., priority 2021, published 2025).

Structures are written as SMILES. A value given as a limit tells only on which side of the number the result lay.

The first experiment deals with human P2Y12 receptor (Homo sapiens, UniProt Q9H244). Nature of the experiment: Inhibition study in human P2Y12 receptor transfected CHO cells (cAMP, LANCE Ultra cAMP Kit).
Chain of human P2Y12 receptor (Q9H244 whole entry): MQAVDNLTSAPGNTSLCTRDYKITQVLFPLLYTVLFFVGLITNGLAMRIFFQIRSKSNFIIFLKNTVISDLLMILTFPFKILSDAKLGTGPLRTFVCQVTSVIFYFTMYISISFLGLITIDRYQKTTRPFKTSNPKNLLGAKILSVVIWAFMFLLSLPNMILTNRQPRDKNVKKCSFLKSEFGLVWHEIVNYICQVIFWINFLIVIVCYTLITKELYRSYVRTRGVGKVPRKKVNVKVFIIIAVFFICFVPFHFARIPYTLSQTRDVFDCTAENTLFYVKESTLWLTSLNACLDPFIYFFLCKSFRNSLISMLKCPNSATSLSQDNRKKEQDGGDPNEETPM
Settings: not given
The experiment is classed as cell-based. The procedure:
A CHO cell line which stably expresses human P2Y12 receptors was used in the study of the inhibitory effect of the compounds of the disclosure. (The cell line was constructed by Beijing Ion Channel Explorer Co.) The hP2Y12-CHO Cells were cultured in Ham's F-12 medium (Ham's F-12 Medium: +10% FBS +200 μg/ml Hygromycin B) and incubated at 37° C. under 5% CO2. The poor culture medium was removed, and the cells were washed with PBS. Then 1 mL trypsin solution was added to digest/detach the cells. The culture dish was incubated at 37° C. for 2 minutes. As soon as the cells were detached, 5 mL 37° C. pre-warmed complete medium was added. Cell suspension was transferred into a sterile pipet, the cells aggregates were dissociated by a gentle homogenization. The cell suspension was transferred into a sterile tube, and centrifuged at 1000 rpm for 5 minutes; In order to maintain the physiological activity of cells, the degree of cell fusion was controlled at about 80%.
After cell counting, the cells were cultured in 384-well plate. The test compounds were serially diluted 5-fold from 10000 nM for 10 concentrations and in 3 replicates. Ticagrelor was used as the reference compound and 2-MeSADP as the inducer. After the incubation for 15 min at 37° C., forskolin buffer was added to all wells to induce the production of cAMP. The plate was centrifuged at 1000 rpm for 1 minute, followed by incubation at 37° C. for 30 min. After lysis, the cAMP expression was quantified using PerkinElmer's LANCE® Ultra cAMP Kit method.
As for `CCCSc1nc(N[C@@H]2C[C@H]2c2ccc(F)c(F)c2)c2nnn([C@@H]3C[C@H](OCCO)[C@@H](O)[C@H]3O)c2n1` [Ticagrelor, reference compound], the IC50 was below 50 nM.

The experiment is the same for the next values; noted with them: hP2Y12-CHO cells; 2-MeSADP as inducer; forskolin-induced cAMP; read-out: Inbibition of P2Y12 IC50.
Consider `CCCSc1nc(N[C@@H]2C[C@H]2c2ccc(F)c(F)c2)c2nnn([C@@H]3[C@@H](O)[C@H](CO)O[C@H]3CO)c2n1` [Compound 8, ((2R,3R,4R,5S)-3-(7-(((1R,2S)-2-(3,4-difluorophenyl)cyclopropyl)amino)-5-(propylthio)-3H-[1,2,3]triazolo[4,5-d]pyrimidin-3-yl)-4-hydroxytetrahydrofuran-2,5-diyl)dimethanol], for which the IC50 is 250 to 1250 nM. The same measure, in the same setting: to `CCCSc1nc(N[C@@H]2C[C@H]2c2ccc(F)c(F)c2)c2nnn([C@@H]3C[C@H](CO)O[C@H]3CO)c2n1` [Compound 19, ((2R,3R,5R)-3-(7-(((1R,2S)-2-(3,4-difluorophenyl)cyclopropyl)amino)-5-(propylthio)-3H-[1,2,3]triazolo[4,5-d]pyrimidin-3-yl)tetrahydrofuran-2,5-diyl)dimethanol] belongs below 50 nM; to `CCCSc1nc(N[C@@H]2C[C@H]2c2ccc(F)c(F)c2)c2nnn([C@H]3CO[C@@H](CO)[C@@H]3O)c2n1` [Compound 27, (2S,3R,4S)-4-(7-(((1R,2S)-2-(3,4-difluorophenyl)cyclopropyl)amino)-5-(propylthio)-3H-[1,2,3]triazolo[4,5-d]pyrimidin-3-yl)-2-(hydroxymethyl)tetrahydrofuran-3-ol], below 50 nM; to `CCCSc1nc(N[C@@H]2C[C@H]2c2ccc(F)c(F)c2)c2nnn([C@H]3CO[C@@H](CO)C3)c2n1` [Compound 32, ((2R,4R)-4-(7-(((1R,2S)-2-(3,4-difluorophenyl)cyclopropyl)amino)-5-(propylthio)-3H-[1,2,3]triazolo[4,5-d]pyrimidin-3-yl)tetrahydrofuran-2-yl)methanol], below 50 nM. In the case of `CCCSc1nc(N[C@@H]2C[C@H]2c2ccc(F)c(F)c2)c2nnn([C@@H]3[C@H](F)[C@H](CO)O[C@H]3CO)c2n1` [Compound 39a, ((2R,3S,4S,5S)-3-(7-(((1R,2S)-2-(3,4-difluorophenyl)cyclopropyl)amino)-5-(propylthio)-3H-[1,2,3]triazolo[4,5-d]pyrimidin-3-yl)-4-fluorotetrahydrofuran-2,5-diyl)dimethanol], the IC50 was 50 to 250 nM.

In the case of `CCCSc1nc(N[C@@H]2C[C@H]2c2ccc(F)c(F)c2)c2nnn([C@@H]3[C@@H](F)[C@H](CO)O[C@H]3CO)c2n1` [Compound 39b, ((2R,3S,4R,5S)-3-(7-(((1R,2S)-2-(3,4-difluorophenyl)cyclopropyl)amino)-5-(propylthio)-3H-[1,2,3]triazolo[4,5-d]pyrimidin-3-yl)-4-fluorotetrahydrofuran-2,5-diyl)dimethanol], the IC50 fell in the range of 50 to 250 nM. The same measure, in the same setting: then `CCCSc1nc(N[C@@H]2C[C@H]2c2ccc(F)c(F)c2)c2nnn([C@@H]3C[C@H](C(=O)O)O[C@H]3CO)c2n1` [Compound 42, (2R,4R,5R)-4-(7-(((1R,2S)-2-(3,4-difluorophenyl)cyclopropyl)amino)-5-(propylthio)-3H-[1,2,3]triazolo[4,5-d]pyrimidin-3-yl)-5-(hydroxymethyl)tetrahydrofuran-2-carboxylic acid], with below 50 nM.

As for `CCC[S+]([O-])c1nc(N[C@@H]2C[C@H]2c2ccc(F)c(F)c2)c2nnn([C@@H]3C[C@H](C(=O)O)O[C@H]3CO)c2n1` (stereo partly drawn) [Compound 43, (2R,4R,5R)-4-(7-(((1R,2S)-2-(3,4-difluorophenyl)cyclopropyl)amino)-5-(propylsulfinyl)-3H-[1,2,3]triazolo[4,5-d]pyrimidin-3-yl)-5-(hydroxymethyl) tetrahydrofuran-2-carboxylic Acid], the IC50 was 250 to 1250 nM. Still for that read-out and setting: to `CCCSc1nc(N[C@@H]2C[C@H]2c2ccc(F)c(F)c2)c2nnn([C@@H]3C[C@H](CO)O[C@H]3COC)c2n1` [Compound 49, ((2R,4R,5R)-4-(7-(((1R,2S)-2-(3,4-difluorophenyl)cyclopropyl)amino)-5-(propylthio)-3H-[1,2,3]triazolo[4,5-d]pyrimidin-3-yl)-5-(methoxymethyl)tetrahydrofuran-2-yl)methanol] belongs 250 to 1250 nM; to `CCCSc1nc(N[C@@H]2C[C@H]2c2ccc(F)c(F)c2)c2nnn([C@@H]3C[C@H](CCO)O[C@H]3CO)c2n1` [Compound 54, 2-((2R,4R,5R)-4-(7-(((1R,2S)-2-(3,4-difluorophenyl)cyclopropyl)amino)-5-(propylthio)-3H-[1,2,3]triazolo[4,5-d]pyrimidin-3-yl)-5-(hydroxymethyl)tetrahydrofuran-2-yl)ethan-1-ol], above 1250 nM.
